# Calls of active or inactive are those of the source.
# Tests used:
# Cytochrome P450 2D6 = Cytochrome P450 2D6 (Homo sapiens, UniProt P10635); assay: qHTS Assay for Inhibitors and Substrates of Cytochrome P450 2D6. [Related pubchem assays: 410 ]; assay type: ADME; settings: read-out: Potency
# [1] = biological target: T1, Alkaline phosphatase, tissue-nonspecific isozyme (Homo sapiens, UniProt P05186)
# T1 sequence (P05186 whole entry): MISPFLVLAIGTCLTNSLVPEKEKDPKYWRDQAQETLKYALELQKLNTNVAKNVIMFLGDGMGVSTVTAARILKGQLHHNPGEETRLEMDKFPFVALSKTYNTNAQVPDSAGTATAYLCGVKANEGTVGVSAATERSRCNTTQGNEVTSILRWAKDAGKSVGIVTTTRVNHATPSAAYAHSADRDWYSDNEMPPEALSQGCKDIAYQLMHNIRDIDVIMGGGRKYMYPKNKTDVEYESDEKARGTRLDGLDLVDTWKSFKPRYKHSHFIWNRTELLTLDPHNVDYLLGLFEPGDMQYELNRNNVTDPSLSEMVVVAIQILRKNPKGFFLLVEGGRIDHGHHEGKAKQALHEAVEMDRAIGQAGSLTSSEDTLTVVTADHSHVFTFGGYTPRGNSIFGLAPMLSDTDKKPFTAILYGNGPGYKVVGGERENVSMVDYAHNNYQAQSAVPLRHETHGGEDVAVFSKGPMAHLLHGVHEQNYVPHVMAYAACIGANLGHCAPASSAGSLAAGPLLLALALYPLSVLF
# [2] = CCR5-tropic HIV-1 fusion blockers – cell-based, CCR5-tropic Env, dose response (AID 2279); assay type: functional
# [3] = biological target: Peroxisome proliferator-activated receptor gamma/Nuclear receptor coactivator 3 (Homo sapiens, UniProt P37231); assay type: functional;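 also: agonist potency for raising coactivator recruitment to the receptor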
# Sequence of Peroxisome proliferator-activated receptor gamma/Nuclear receptor coactivator 3 (P37231 whole entry): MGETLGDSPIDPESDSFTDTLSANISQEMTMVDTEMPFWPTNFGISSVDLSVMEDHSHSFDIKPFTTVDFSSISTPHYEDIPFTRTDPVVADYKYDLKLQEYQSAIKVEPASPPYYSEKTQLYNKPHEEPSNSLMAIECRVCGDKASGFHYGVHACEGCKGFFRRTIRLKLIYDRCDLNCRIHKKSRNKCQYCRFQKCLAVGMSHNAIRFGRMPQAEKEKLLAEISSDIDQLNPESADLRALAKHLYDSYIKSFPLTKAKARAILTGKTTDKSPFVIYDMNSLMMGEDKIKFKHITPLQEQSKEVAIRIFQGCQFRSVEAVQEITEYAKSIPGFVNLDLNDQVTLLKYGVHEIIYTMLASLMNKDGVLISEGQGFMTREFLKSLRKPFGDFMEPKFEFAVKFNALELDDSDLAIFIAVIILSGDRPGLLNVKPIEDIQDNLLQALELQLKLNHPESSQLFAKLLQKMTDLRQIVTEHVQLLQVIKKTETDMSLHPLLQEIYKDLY
# Sequence of Peroxisome proliferator-activated receptor gamma/Nuclear receptor coactivator 3 (Q9Y6Q9 whole entry, further chain): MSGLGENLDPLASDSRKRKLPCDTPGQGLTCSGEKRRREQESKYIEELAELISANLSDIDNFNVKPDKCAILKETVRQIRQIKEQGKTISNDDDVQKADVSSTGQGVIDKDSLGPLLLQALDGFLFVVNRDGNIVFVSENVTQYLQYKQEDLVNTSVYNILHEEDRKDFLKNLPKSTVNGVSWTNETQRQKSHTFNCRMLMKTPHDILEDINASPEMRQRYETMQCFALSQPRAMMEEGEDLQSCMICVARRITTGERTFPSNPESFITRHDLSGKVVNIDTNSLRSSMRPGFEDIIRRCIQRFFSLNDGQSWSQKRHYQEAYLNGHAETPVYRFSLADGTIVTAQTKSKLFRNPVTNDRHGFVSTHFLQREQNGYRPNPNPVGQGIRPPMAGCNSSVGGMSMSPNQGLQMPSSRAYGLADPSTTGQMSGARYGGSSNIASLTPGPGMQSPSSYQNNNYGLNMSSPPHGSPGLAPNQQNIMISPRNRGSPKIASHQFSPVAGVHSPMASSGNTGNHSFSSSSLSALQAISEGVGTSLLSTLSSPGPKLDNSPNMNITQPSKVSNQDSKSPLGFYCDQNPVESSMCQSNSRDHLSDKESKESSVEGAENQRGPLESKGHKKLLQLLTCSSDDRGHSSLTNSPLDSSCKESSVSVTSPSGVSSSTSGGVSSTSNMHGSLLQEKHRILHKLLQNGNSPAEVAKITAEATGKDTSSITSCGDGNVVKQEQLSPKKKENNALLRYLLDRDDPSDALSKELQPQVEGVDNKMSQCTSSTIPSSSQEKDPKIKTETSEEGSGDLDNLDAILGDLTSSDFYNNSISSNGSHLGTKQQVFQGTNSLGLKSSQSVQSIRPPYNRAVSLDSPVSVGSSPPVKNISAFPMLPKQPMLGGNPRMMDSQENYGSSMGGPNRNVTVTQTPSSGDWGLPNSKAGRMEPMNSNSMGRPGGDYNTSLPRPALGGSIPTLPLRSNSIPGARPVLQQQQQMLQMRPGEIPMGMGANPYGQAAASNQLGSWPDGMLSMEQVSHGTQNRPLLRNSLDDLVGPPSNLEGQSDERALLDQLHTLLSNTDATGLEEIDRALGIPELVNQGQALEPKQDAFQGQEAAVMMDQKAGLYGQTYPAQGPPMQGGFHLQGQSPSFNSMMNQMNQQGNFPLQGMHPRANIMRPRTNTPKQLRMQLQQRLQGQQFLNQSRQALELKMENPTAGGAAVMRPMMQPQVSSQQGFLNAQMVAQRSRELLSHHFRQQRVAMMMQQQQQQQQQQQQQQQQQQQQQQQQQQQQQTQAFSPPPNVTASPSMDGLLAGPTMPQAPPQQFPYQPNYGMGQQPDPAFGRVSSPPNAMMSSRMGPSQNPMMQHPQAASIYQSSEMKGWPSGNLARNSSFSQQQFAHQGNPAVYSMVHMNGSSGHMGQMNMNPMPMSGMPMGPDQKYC
# [4] = biological target: Peroxisome proliferator-activated receptor gamma/Nuclear receptor coactivator 2 (Homo sapiens, UniProt P37231); assay type: functional;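 also: agonist potency for raising coactivator recruitment to the receptor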
# Sequence of Peroxisome proliferator-activated receptor gamma/Nuclear receptor coactivator 2 (P37231 whole entry): as the sequence (P37231 whole entry) above
# Sequence of Peroxisome proliferator-activated receptor gamma/Nuclear receptor coactivator 2 (Q15596 whole entry, further chain): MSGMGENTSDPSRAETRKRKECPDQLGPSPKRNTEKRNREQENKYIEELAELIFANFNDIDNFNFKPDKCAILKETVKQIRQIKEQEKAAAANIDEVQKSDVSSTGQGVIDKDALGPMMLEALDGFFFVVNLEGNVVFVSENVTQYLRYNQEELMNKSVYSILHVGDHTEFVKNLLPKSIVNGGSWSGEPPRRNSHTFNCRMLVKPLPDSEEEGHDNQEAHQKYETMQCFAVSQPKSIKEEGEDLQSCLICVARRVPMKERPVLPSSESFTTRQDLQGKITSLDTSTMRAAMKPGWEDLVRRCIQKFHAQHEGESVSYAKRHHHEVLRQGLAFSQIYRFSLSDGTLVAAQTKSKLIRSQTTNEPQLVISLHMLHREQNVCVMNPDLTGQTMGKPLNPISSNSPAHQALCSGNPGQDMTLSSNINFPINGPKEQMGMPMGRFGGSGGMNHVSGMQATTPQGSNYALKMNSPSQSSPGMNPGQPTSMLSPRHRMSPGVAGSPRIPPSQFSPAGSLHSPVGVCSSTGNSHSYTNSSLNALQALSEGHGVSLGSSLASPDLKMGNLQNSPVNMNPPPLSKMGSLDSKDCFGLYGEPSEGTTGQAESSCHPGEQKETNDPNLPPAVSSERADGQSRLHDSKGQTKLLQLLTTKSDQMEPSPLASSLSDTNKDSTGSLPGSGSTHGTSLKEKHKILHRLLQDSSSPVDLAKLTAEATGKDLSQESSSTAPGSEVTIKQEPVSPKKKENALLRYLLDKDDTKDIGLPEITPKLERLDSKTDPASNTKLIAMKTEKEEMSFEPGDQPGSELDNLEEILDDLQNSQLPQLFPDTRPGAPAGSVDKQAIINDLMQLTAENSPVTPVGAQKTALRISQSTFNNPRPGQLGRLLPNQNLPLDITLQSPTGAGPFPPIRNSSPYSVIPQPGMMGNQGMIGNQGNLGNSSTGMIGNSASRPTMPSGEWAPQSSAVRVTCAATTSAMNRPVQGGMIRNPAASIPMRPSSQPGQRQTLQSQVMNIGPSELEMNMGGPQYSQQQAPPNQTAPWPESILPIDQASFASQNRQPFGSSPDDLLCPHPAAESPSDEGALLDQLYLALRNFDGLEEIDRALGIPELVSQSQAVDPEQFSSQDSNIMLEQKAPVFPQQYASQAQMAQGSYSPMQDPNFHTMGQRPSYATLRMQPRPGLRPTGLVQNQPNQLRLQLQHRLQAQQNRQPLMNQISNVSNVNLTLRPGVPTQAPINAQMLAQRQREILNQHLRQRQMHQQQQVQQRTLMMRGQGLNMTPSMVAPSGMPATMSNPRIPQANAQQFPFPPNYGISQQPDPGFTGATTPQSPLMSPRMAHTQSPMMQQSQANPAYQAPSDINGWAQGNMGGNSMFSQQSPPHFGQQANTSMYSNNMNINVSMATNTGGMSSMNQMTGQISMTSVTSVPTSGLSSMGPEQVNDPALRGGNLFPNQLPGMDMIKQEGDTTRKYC
# [5] = biological target: Peroxisome proliferator-activated receptor gamma/Nuclear receptor coactivator 1 (Homo sapiens, UniProt P37231); assay type: functional;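 also: agonist potency as compounds enhance coactivator SRC-1 recruitment to PPARgamma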
# [6] = mitochondrial function rescue without frataxin homolog – Friedreich's ataxia, plus single-dose screen, dose response (AID 1465); assay type: functional;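 also: yeast depleted of Yfh1p frataxin homolog grown on glycerol needing respiration; WST-1 tetrazolium dye reduction as measure of cellular dehydrogenase metabolic activity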
# Leucine aminopeptidase = biological target: T2, Leucine aminopeptidase (Plasmodium falciparum 3D7, UniProt Q8IL11); assay: P. falciparum M17LAP inhibitors, primary screen, biochemical, fluorogenic H-Leu-NHMec substrate, 1536-well (AID 1619); assay type: functional
# T2 sequence (Q8IL11 whole entry): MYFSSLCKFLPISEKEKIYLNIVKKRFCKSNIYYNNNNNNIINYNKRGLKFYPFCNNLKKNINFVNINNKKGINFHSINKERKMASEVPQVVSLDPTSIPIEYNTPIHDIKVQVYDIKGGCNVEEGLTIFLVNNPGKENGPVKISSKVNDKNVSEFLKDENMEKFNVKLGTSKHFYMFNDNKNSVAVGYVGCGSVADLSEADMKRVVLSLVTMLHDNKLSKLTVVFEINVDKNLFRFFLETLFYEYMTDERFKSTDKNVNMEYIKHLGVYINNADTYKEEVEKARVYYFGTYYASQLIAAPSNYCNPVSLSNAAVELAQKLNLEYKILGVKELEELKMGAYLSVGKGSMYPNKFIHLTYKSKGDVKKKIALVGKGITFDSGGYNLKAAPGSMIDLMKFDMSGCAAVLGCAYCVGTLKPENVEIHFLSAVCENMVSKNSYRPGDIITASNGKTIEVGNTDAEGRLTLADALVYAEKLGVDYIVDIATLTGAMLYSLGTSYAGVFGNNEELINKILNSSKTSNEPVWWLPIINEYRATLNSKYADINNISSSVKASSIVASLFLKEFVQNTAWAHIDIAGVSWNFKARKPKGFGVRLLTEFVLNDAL
# [7] = biological target: T3, Potassium voltage-gated channel subfamily KQT member 2 (Rattus norvegicus, UniProt O88943); assay: (§1) Mode of action assay - current amplitude concentration response for derivatives of ZTZ240, a potentiator of KCNQ2 potassium channels. [Related pubchem assays: 2258 (Summary assay for the KCNQ2 potentiators.), 2239 (Primary HTS assay for KCNQ2 potentiators with 305606 compounds tested, and 1644 are found to be active.)]; assay type: functional
# T3 sequence (O88943 whole entry): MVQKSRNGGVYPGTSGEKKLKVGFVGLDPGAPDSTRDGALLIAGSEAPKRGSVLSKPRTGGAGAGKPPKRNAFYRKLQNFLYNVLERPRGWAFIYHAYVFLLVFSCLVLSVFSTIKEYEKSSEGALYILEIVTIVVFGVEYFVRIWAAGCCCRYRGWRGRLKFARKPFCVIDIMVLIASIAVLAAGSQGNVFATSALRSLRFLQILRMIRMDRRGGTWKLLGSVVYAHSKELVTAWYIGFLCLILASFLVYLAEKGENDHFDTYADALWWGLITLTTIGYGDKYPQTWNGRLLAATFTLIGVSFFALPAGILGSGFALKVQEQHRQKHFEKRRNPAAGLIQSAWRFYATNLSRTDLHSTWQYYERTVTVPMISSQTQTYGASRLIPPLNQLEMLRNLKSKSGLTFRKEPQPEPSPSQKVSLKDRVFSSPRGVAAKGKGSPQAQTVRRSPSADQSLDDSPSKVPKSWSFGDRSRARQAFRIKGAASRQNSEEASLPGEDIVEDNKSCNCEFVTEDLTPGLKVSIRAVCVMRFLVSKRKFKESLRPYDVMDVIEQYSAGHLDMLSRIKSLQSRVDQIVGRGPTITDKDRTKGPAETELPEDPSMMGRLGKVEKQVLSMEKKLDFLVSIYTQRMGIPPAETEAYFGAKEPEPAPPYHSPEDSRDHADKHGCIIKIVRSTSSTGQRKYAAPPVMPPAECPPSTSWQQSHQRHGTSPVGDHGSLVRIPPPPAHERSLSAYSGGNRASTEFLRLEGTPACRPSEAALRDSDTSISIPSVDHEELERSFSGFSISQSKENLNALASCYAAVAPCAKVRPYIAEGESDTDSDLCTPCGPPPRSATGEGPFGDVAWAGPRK
# [8] = biological target: T3, Potassium voltage-gated channel subfamily KQT member 2; assay: as §1, with “action” for “action assay”, “deactivation constant” for “current amplitude”, “ztz240,” for “derivatives of ZTZ240,”; assay type: functional
# Aspartyl aminopeptidase = Aspartyl aminopeptidase (Plasmodium falciparum 3D7, UniProt Q8I2J3)
# Procathepsin L = Procathepsin L (Homo sapiens, UniProt P07711)
# Sequence of Procathepsin L (P07711 whole entry): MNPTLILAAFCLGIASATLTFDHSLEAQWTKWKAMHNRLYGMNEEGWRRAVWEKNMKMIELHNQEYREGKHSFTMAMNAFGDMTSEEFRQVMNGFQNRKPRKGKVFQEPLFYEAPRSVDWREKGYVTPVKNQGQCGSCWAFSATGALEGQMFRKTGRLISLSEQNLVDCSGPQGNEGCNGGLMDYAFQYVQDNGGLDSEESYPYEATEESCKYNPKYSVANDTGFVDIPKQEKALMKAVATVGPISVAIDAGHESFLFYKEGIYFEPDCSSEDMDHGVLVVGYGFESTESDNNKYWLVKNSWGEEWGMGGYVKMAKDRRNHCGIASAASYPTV
# Protein Tat = biological target: T4, Protein Tat (Human immunodeficiency virus type 1 group M subtype B (isolate HXB2)(HIV-1), UniProt P04608); assay type: functional;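 also: tat binding to TAR RNA read out by fluorescence polarization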
# T4 sequence (P04608 whole entry): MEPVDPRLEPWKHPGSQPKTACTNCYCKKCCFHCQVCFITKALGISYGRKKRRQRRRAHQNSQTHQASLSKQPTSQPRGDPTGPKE
# [9] = biological target: Ras and Rab interactor 1/Tyrosine-protein kinase ABL1 (Homo sapiens, UniProt P00519+Q13671); assay type: functional;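 also: biochemical TR-FRET dose-response test measuring inhibition of binding between Rin1 and Abl proteins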
# [10] = biological target: T5, Histone-lysine N-methyltransferase NSD2 (Homo sapiens, UniProt O96028); assay type: biochemical
# T5 sequence (O96028 whole entry): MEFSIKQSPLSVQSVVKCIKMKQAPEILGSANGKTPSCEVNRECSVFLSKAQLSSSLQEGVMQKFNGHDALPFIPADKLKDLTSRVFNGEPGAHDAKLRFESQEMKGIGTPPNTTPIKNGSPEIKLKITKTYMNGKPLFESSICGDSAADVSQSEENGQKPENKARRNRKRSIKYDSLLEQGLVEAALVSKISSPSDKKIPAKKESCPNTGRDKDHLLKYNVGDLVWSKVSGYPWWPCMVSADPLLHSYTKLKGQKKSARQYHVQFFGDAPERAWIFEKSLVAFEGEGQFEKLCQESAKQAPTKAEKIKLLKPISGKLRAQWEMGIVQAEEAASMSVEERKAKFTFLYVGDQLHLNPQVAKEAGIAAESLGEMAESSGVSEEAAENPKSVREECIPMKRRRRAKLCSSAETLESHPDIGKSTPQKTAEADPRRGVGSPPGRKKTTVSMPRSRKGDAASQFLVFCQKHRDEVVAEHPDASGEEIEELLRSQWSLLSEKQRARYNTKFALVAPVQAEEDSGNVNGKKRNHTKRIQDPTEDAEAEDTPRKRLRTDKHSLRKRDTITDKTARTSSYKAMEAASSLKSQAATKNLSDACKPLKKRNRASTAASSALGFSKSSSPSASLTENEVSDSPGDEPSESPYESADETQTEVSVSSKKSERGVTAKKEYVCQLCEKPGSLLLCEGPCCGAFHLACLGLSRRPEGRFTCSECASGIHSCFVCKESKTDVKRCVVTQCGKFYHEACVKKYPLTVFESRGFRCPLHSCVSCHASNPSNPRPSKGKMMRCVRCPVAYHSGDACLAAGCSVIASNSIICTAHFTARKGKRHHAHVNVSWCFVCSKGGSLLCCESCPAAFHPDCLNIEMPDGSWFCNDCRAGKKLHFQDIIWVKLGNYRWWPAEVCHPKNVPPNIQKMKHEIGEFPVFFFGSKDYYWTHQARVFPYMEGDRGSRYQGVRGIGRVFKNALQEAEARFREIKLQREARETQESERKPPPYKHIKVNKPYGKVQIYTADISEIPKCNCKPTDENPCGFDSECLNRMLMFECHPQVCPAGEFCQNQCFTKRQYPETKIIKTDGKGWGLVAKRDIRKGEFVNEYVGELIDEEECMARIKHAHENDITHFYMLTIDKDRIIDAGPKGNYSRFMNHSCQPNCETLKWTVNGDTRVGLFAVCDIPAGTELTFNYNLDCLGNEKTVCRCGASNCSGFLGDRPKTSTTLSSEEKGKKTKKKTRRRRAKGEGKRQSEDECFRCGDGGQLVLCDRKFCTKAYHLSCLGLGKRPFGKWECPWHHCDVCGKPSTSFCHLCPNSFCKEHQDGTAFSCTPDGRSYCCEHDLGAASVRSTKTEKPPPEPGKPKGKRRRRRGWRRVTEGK
# HEK293 = assay: Fluorescence-based counterscreen for potentiators or agonists of NPY-Y2: cell-based high-throughput dose response assay to identify inhibitors of cyclic nucleotide gated ion channel (CNGC) activity. In this assay, the parental HEK293 cell line transfected with a cyclic-nucleotide gated ion channel (CNGC)-based cAMP sensor is used to measure inhibition of isoproterenol-induced CNGC activity by test compound.; assay type: functional; settings: Homo sapiens;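 also: stimulus is 1 µM isoproterenol at EC100 plus PDE inhibitor Ro 20-1724 at 25 µM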
# [11] = biological target: Neuropeptide Y receptor type 1 (Homo sapiens, UniProt P25929); assay: Fluorescence-based counterscreen for agonists of NPY-Y2: cell-based high-throughput dose response assay for agonists of NPY-Y1.; assay type: functional
# [12] = biological target: Neuropeptide Y receptor type 2 (Homo sapiens, UniProt P49146); assay: Fluorescence-based cell-based high-throughput dose response assay for agonists of NPY-Y2. [Related pubchem assays: 1703 (Screening assay (CNGC inhibitors).), 1359 (Screening assay (NPY-Y2 potentiators or agonists).), 1304 (Screening assay (NPY-Y1 potentiators or agonists).), 1710 (Screening assay (NPY-Y2 agonists).), 1791 (Summary AID.)]; assay type: functional
# Streptococcus = assay: Luminescence Microorganism-Based Dose Response Follow up to Identify Compounds Cytotoxic to Streptococcus. [Related pubchem assays: 1677 (Project Summary), 1915, 1914, 1902 (Retest at Dose), 1900 (Counter Screen), 1662 (Primary HTS)]; assay type: functional, organism-based
smiles,measurement,setting,value
CC12C=C(/C=C/CCc3ccco3)C(C)(C1)C(CCc1ccco1)CC2=O (stereo not given),AC50,Cytochrome P450 2D6,6.31 µM (inconclusive)
Cc1ccc(C)n1-c1ccc(C(=O)NN)s1,EC50,[1],> 100 µM (not active)
O=C1/C(=C\c2ccc(O)c(O)c2)C(c2ccccc2)=NN1c1ccccc1,IC50,[2],27.1 µM (active)
CCOC(=O)c1c(C)[nH]c(C(=O)COC(=O)CNC(=O)C2CCCCC2)c1C,EC50,[3],> 79.4 µM (not active)
same,EC50,[4],> 79.4 µM (not active)
same,EC50,[5],> 79.4 µM (not active)
N#C/C(=C/c1ccc(N2CCOCC2)o1)C(=O)NC1CCCCC1,EC50,[6],> 100 µM (active)
same,IC50,Leucine aminopeptidase,109 µM (active)
O=C(Nc1ccc(Cl)nc1)c1ccc(F)cc1,EC50,[7],1.46 µM (active)
same,EC50,[8],5.9 µM (active)
O=C(/C=C/c1ccc(O)c(O)c1)OC1C(O)CC(OC(=O)/C=C/c2ccc(O)c(O)c2)(C(=O)O)CC1O (stereo not given),IC50,cells,31.9 µM (active)
same,IC50,Aspartyl aminopeptidase,1.94 µM (active)
same,IC50,Procathepsin L,> 59.6 µM (not active)
same,IC50,Protein Tat,85.2 µM (inconclusive)
same,IC50,[9],18.9 µM (inactive)
same,AC50,[10],5.43 µM (active)
O=C(N/N=C/c1ccc(OC(F)F)cc1)c1cccc(S(=O)(=O)N2CCOCC2)c1,EC50,HEK293,> 35.4 µM (not active)
same,EC50,[11],> 35.4 µM (not active)
same,EC50,[12],> 35.4 µM (not active)
Cc1ccc(C(=O)N2c3ccccc3Sc3ccccc32)cc1,EC50,Streptococcus,> 500 µM (not active)

# From ChEMBL document CHEMBL1201862, “PubChem BioAssay data set” (2004)
